Patent US20260347403A1, “FUNGICIDAL COMPOUND” (priority 2022, published 2026)

Tested on: Puccinia recondita
Assay: Leaf disc mixture assay with malonomicin, Puccinia recondita, preventive spray timing, 8 dpi
Type: in vivo, Puccinia recondita on wheat (cultivar Kanzler)
Details: compound of Formula I(a) lines 1-A to 2-D = 200, 100, 50, 25, 12.5, 6.25, 3.13, 0 ppm
Method: A stock solution for the lipopeptide compound of Formula I(a) was produced in DMSO (max. 10 mg/ml). Malonomicin was produced according to Law et al, 2018 (Nature Catalys is |VOL 1|DECEMBER 2018|977-984). A stock solution of malonomicin was produced in water plus 0.025% Tween®20.
Assays to test efficacy of mixtures of compound of Formula I(a) in combination with malonomicin on the control of fungal pathogens in a leaf disc assay were designed for two 24well plates.
Table 22 and Table 23. Outline of 24well testplate (1) and testplate (2) including concentration of compounds sprayed per well. The upper number in the cell indicates compound of Formula I(a) concentration (ppm), the lower number malonomicin concentration (ppm). Column (1) holds a dilution series of compound of Formula I(a), row (2-D) hold a dilution series of malonomicin. Well 2-D-(1) represents an untreated check. This design was applied for tests including Puccinia recondita (EPPO code: PUCCRE) with preventive and curative spray timing.
A first set of master plates with 1× concentrated spray solution of the lipopeptide compound of Formula I(a) stock diluted in water with concentrations according to table 22, table 23, table 25 or table 26, respectively, was prepared. Each well contained 2% DMSO and 0.025% Tween20. Accordingly, a second set of master plates with 1× concentrated malonomicin stock diluted in water was prepared. Each well of the second set contained 0.025% Tween20. Leaf segments placed on agar in 24well plates were sprayed with 8 μl of solution from the master plate containing the lipopeptide compound of Formula I(a) and the leaf segments were let to dry, followed 2 hours later by 8 μl of solution from the master plate containing malonomicin. After second sprays had dried, leaf segments were infected with fungal spores to obtain a preventive application timing. Alternatively, leaf segments infected one day before spray of the compounds were used, resulting in a curative spray timing. In addition, several plates were produced where leaf segments were sprayed 2× in absence of test compound (with only DMSO and Tween20), representing the untreated check samples. For each leaf segment percent leaf coverage of disease symptoms was assessed. Percent leaf coverage reduction relative to the untreated check was calculated. Efficacy of the mixtures was tested in duplicate and on different fungal species. Reported efficacy values are the average of two replicate results.
Puccinia recondita (EPPO Code: PUCCRE) with Preventive Spray Timing.
Wheat (cultivar Kanzler) leaf segments are placed on agar in multiwell plates (24-well format) and sprayed with test solutions (8 ul per well). After drying, the leaf disks are inoculated with a spore suspension of the fungus. After appropriate incubation the activity of a compound is assessed 8 dpi (days after inoculation) as preventive fungicidal activity.

With NC[C@@H]1NC(=O)C(C(=O)CC(NC(=O)[C@@H](N)CO)(C(=O)O)C(=O)O)=C1O [malonomicin, {[(2S)-2-amino-3-hydroxypropanoyl]amino}{2-[(5S)-5-(aminomethyl)-4-hydroxy-2-oxo-2,5-dihydro-1H-pyrrol-3-yl]-2-oxoethyl}malonic acid] the “control of fungal growth (% reduction of symtoms on the leaf segment as compared to untreated check)” value (column (2): malonomicin 200 ppm) was 100%, the “control of fungal growth (% reduction of symtoms on the leaf segment as compared to untreated check)” value (column (3): malonomicin 20 ppm) was 100% and the “control of fungal growth (% reduction of symtoms on the leaf segment as compared to untreated check)” value (column (4): malonomicin 6.67 ppm) was 80%. For the same compound, the “control of fungal growth (% reduction of symtoms on the leaf segment as compared to untreated check)” value (column (5): malonomicin 2.22 ppm) was 10% and the “control of fungal growth (% reduction of symtoms on the leaf segment as compared to untreated check)” value (column (6): malonomicin 0.74 ppm) was 0%.
